Laboratory results reported in patent US20230293644A1, “ANTI-INFLAMMATORY PEPTIDES AND COMPOSITION COMPRISING THE SAME” (Gemvax & KAEL Co., Ltd., priority 2012, published 2023).

Experiments:
Format in all cases: cell-based, human
TNF-α [1] = assay: Screening of TNF-α level in PMA-differentiated THP-1 cell line after LPS; settings: 1 µM peptide, one hour; LPS 10 ng/ml
Experimental: Experiment was carried out using THP-1 cell line (American Type Culture Collection (ATCC), Manassas, VA, USA) which is human acute monocytic leukemia.
THP-1 cells were incubated to reach the number of 1 × 10^5 cells per well in a 96-well plate with RPMI 1640 medium for 24 hrs, followed by addition of 100 uM of PMA (phorbol 12-myristate 13-acetate) for the differentiation into macrophage. After differentiation of THP-1 into macrophage by PMA for a day, LPS was treated for 2 hrs and washed off. Starvation for an hour and PEP1 treatment followed.
THP-1 cell differentiated by PMA was treated with LPS (lipopolysaccharide; 10 ng/ml, Sigma) for 2 hours, followed by 2 times washes with PBS. To the cells, OPTI-MEM culture medium was added to induce cell starvation for an hour, and 1 µM of 179 peptides was taken out and incubated for an hour. After incubation, TNF-α level was measured by using the ELISA kit and the peptides which reduce the TNF-α level were screened (FIG. 24 to FIG. 46).

TNF-α [2] = assay: Screening of TNF-α inhibitory effect, LPS-stimulated PBMC-derived monocytes (Example 2); settings: 4 uM peptide, 2 hrs, LPS 10 ng/ml; for TNF-α inhibiting effect compared to the group treated with LPS and estrogen: estrogen 20 nM
Experimental: PBMC (peripheral blood mononuclear cells) layer was separated from blood samples (50 ml) collected in healthy subjects using Biocoll Separating Solution (Biochrom AG, Berlin, Germany). The collected PBMC were enriched in RPMI 1640 medium containing 20% human serum for 30 mins, and then transferred to 100-mm polystyeren cell culture plate coated with human serum for incubation for 2 hrs at 37° C., 5% CO^2 incubator. Monocytes were detached from the bottom of the plate using cold PBS, and incubated to reach the number of 1 × 10^5 cell/well in 96-well plate with RPMI 1640 medium (supplemented with penicillinstreptomycin; […], human serum; 20%) over night.
ELISA was performed to find out how the peptides of the PEP RIA series influence TNF-α level. PBMC-derived monocytes were incubated to reach the number of 1 × 10^5 cells per well in a 96-well plate and then treated with LPS (lipopolysaccharide; 10 ng/ml, Sigma) for 2 hours. To the monocytes that were washed three times with PBS, OPTI-MEM culture medium was added to induce cell starvation for an hour, 4 µM of the peptide was taken out and incubated for 2 hours. There were three negative control groups. The first group was not treated with anything. The second group that was treated with estrogen (in this experiment, estradiol was used as a kind of estrogen). The third group was treated with LPS (10 ng/ml) or with LPS (10 ng/ml) as well as estrogen (20 nM). PEP1 that was confirmed to have TNF-α inhibiting activity was used as a positive control to measure TNF-α inhibiting activity. After incubation, TNF-α was measured by following the ELISA kit manual (R&D, Minneapolis, MN, USA). The details of quantification method can be found in Experiment 2.2 of Example 1.
Using the method stated above, Peptides with TNF-α inhibiting effect were screened. PBMC-derived monocytes were stimulated with LPS (10 ng/ml), which is endotoxin, for 2 hours and were induced to starve by adding OPTI-MEM for 1 hour. After that, 4 uM of 179 peptides were treated and incubated for 2 hrs. The amount of TNF-α in the cell culture medium was measured using ELISA, and the peptides with TNF-α inhibiting effect were screened by comparing to the negative and positive controls (FIG. 3 to FIG. 23).

TNF-α [3] = assay: TNF-α ELISA, LPS-stimulated PBMC-derived monocytes (Example 1); settings: LPS 10 ng/ml 2 hrs, starved 1 hr, 4 uM for 2 hrs; cell culture medium
Experimental: PBMC (peripheral blood mononuclear cell) was separated from the blood samples (50ml) collected from healthy subjects using Ficoll-PaqueTM PLUS (GE Healthcare Life Sciences, Piscataway, NJ, USA). PBMCs were then enriched in complete RPMI 1640 medium containing 20% of human serum, followed by transferring to 100 mm polystyrene cell culture plate coated with human serum for 30 mins. […]
To see the effect of PEP-1 on TNF-α level in terms of protein expression level, ELISA (enzyme linked immunosorbent assay) was performed. […] After culturing, cell soup was collected, and the amount of TNF-α was measured using ELISA kit (R&D, Minneapolis, MN, USA) as follows:
TNF measurement uses sandwich ELISA method. […] Again, plate was washed, and avidin/biotin was added for measuring the absorbance. TNF-α level of each sample was quantified using the standard graph calculated from the absorbance of standard solution.
PBMC-derived monocytes were stimulated with endotoxin LPS (10 ng/ml) for 2 hrs, starved for 1 hr using OPTI-MEM, and then 4 uM of FITC, FITC-TAT, PEP 1-FITC and FITC-PEP 1 were treated for 2 hrs. After incubation, TNF-α level was measured with cell culture medium using ELISA.

Substance | TNF-α level compared to control group treated only with LPS (TNF-α [1]) | TNF-α inhibiting effect compared to the control group treated with only LPS (TNF-α [2]) | also measured
ALLTSRLR (listed as Homo sapiens) [SEQ ID NO: 107] | reduce the TNF- α level |  | 
ARPALLTSRL (listed as Homo sapiens) [SEQ ID NO: 113] |  | showed TNF-α inhibiting effect | expression level of TNF-α compared to group treated with LPS and estrogen (TNF-α [1]): reduce the expression level of TNF-α
ARPALLTSRLR (listed as Homo sapiens) [SEQ ID NO: 112] |  | showed TNF-α inhibiting effect | expression level of TNF-α compared to group treated with LPS and estrogen (TNF-α [1]): reduce the expression level of TNF-α
EARPALLTSRLRFIP (listed as Homo sapiens) [SEQ ID NO: 78] | reduce the TNF- α level |  | 
EARPALLTSRLRFIPKPDGLRPIVNM (listed as Homo sapiens) [SEQ ID NO: 73] | reduce the TNF- α level | showed TNF-α inhibiting effect | TNF-α inhibiting effect compared to the group treated with LPS and estrogen (TNF-α [2]): showed TNF-α inhibiting effect
EARPALLTSRLRFIPKPDGLRPIVNMDY (listed as Homo sapiens) [SEQ ID NO: 75] | reduce the TNF- α level |  | 
EVRQHREARPALLTSRLRFIPK (listed as Homo sapiens) [SEQ ID NO: 7] | reduce the TNF- α level |  | 
EVRQHREARPALLTSRLRFIPKP (listed as Homo sapiens) [SEQ ID NO: 41] |  |  | expression level of TNF-α compared to group treated with LPS and estrogen (TNF-α [1]): reduce the expression level of TNF-α
FIP [SEQ ID NO: 179] | reduce the TNF- α level |  | 
Fluorescein Isothiocyanate [FITC] |  |  | TNF-α level (TNF-α [3]): 6.2 ng/mL
HREARPALLTSRLRFIPK (listed as Homo sapiens) [SEQ ID NO: 3] |  |  | expression level of TNF-α compared to group treated with LPS and estrogen (TNF-α [1]): reduce the expression level of TNF-α
HREARPALLTSRLRFIPKPDGL (listed as Homo sapiens) [SEQ ID NO: 30] |  |  | expression level of TNF-α compared to group treated with LPS and estrogen (TNF-α [1]): reduce the expression level of TNF-α
LTSR (listed as Homo sapiens) [SEQ ID NO: 109] | reduce the TNF- α level | showed TNF-α inhibiting effect | TNF-α inhibiting effect compared to the group treated with LPS and estrogen (TNF-α [2]): showed TNF-α inhibiting effect
QHREARPALLTSRLRFIPKPDGLR (listed as Homo sapiens) [SEQ ID NO: 38] | reduce the TNF- α level | showed TNF-α inhibiting effect | 
REARPALLTSRLRFIPK (listed as Homo sapiens) [SEQ ID NO: 2] |  |  | expression level of TNF-α compared to group treated with LPS and estrogen (TNF-α [1]): reduce the expression level of TNF-α
RQHREARPALLTSRLRFIPK (listed as Homo sapiens) [SEQ ID NO: 5] | reduce the TNF- α level |  | 
TSRLRFIP (listed as Homo sapiens) [SEQ ID NO: 159] |  | showed TNF-α inhibiting effect | 
TSRLRFIPK (listed as Homo sapiens) [SEQ ID NO: 97] |  | showed TNF-α inhibiting effect | TNF-α inhibiting effect compared to the group treated with LPS and estrogen (TNF-α [2]): showed TNF-α inhibiting effect
VRQHREARPALLTSRLRFIPKPD (listed as Homo sapiens) [SEQ ID NO: 33] |  | showed TNF-α inhibiting effect | TNF-α inhibiting effect compared to the group treated with LPS and estrogen (TNF-α [2]): showed TNF-α inhibiting effect
VRQHREARPALLTSRLRFIPKPDG (listed as Homo sapiens) [SEQ ID NO: 34] |  | showed TNF-α inhibiting effect | TNF-α inhibiting effect compared to the group treated with LPS and estrogen (TNF-α [2]): showed TNF-α inhibiting effect
VRQHREARPALLTSRLRFIPKPDGL (listed as Homo sapiens) [SEQ ID NO: 35] |  | showed TNF-α inhibiting effect | 
VRQHREARPALLTSRLRFIPKPDGLR (listed as Homo sapiens) [SEQ ID NO: 36] | reduce the TNF- α level | showed TNF-α inhibiting effect | 
